For 44 compounds, EC50 results are on record in patent publication US9150568B2, “Compositions and methods for modulating FXR” (NOVARTIS AG, priority 2010, dated 2015).

Each structure is given as a SMILES string.

One assay has as its target T1, human Farnesoid X Receptor (FXR) ligand binding domain (GST-FXR LBD) (Homo sapiens, UniProt Q96RI1).
T1 construct: purchased Invitrogen
T1 sequence (Q96RI1 193-472 isoform Q96RI1-2): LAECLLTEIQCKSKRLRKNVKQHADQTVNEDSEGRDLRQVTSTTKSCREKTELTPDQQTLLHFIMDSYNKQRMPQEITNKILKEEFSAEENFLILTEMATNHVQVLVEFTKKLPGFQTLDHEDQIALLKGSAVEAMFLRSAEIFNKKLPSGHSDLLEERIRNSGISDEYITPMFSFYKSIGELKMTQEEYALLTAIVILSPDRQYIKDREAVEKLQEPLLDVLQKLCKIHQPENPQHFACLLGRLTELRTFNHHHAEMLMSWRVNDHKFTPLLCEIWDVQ
The assay is described as follows: Human GST-FXR LBD co-activator interaction assay (HTRF).
Conditions: not given
The format is biochemical. The source says: Human GST-FXR LBD Co-activator interaction Assay. The FXR HTRF assay is a biochemical assay measuring the interaction between FXR and a coactivator protein (SRC1). The ligand-induced interaction with a coactivator protein is a critical step in transcriptional activation by FXR. Thus, this is an assay designed to measure FXR agonist activity of compounds.
The ligand-dependent interaction between GST-FXR LBD and a peptide derived from Steroid Receptor Coactivator-1 (SRC-1) was monitored by Fluorescence Resonance Energy Transfer (FRET). […] Test compounds (in DMSO solution) and detection reagents (anti-GST-Cryptate labeled antibody and Streptavidin-XL665 conjugate; CisBio) were added in assay buffer containing 50 mM KF.
A negative control (without Streptavidin-XL665) was run with each assay and represented the background fluorescence. A reference FXR agonist, GW4064, was included in each experiment as positive control. The efficacy of each test compound was compared to that of GW4064. At each concentration, the relative activity of the test compound was expressed as Response %=(Rsample−RDMSO)/(Rpositive−RDMSO), where Rsample is the HTRF response (expressed in Delta F %) for the test compound, Rpositive is the maximal response for GW4064 at saturating concentrations, and RDMSO is the response for DMSO control. The EC50 values were calculated using GraphPad Prism (GraphPad Software) using non-linear regression curve fit (log(agonist) vs. response—variable slope (four parameters)).
Consider `Cc1cc(C(=O)O)cnc1N1C2CC[C@H]1C[C@H](OCc1c(-c3ccccc3OC(F)(F)F)noc1C1CC1)C2` [Example 19-4B], for which the response was half-maximal at 5 nM (EC50).

Still in this assay, the particulars now being: GST-FXR LBD / biotin-SRC-1 peptide FRET; response relative to GW4064; read-out: FXR Co-activator interaction assay (EC50).
With `O=C(NCCS(=O)(=O)O)c1cc(F)c2nc(N3C4CC[C@H]3C[C@H](OCc3c(-c5ccccc5C(F)(F)F)noc3C3CC3)C4)sc2c1` [Example 16-3], the 50% effective concentration (EC50) amounted to 1.2 nM. As to `O=C(NCCS(=O)(=O)O)c1ccc(N2C3CC[C@H]2C[C@H](OCc2c(-c4ccccc4OC(F)(F)F)noc2C2CC2)C3)nc1` [Example 16-4], the EC50 came to 9 nM. As for `COC(=O)c1cnc(N2C3CC[C@H]2C[C@H](OCc2c(-c4ccccc4OC(F)(F)F)noc2C2CC2)C3)c(Br)c1` [Example 18-1, Methyl 5-bromo-6-((1S,3R)-3-((5-cyclopropyl-3-(2-(trifluoromethoxy)phenyl)isoxazol-4-yl)methoxy)-8-azabicyclo[3.2.1]octan-8-yl)nicotinate], the EC50 was determined as 9 nM.

As for `O=C(O)c1cnc(N2C3CC[C@H]2C[C@H](OCc2c(-c4ccccc4OC(F)(F)F)noc2C2CC2)C3)c(C2CC2)c1` [Example 18-2B, 5-cyclopropyl-6-((1S,3R)-3-((5-cyclopropyl-3-(2-(trifluoromethoxy)phenyl)isoxazol-4-yl)methoxy)-8-azabicyclo[3.2.1]octan-8-yl)nicotinic acid], the EC50 was found to be 7 nM.

In the case of `COC(=O)c1ccc(N2C3CC[C@H]2C[C@H](OCc2c(-c4ccccc4OC(F)(F)F)noc2C2CC2)C3)nc1` [Example 18-3A], the EC50 is 8 nM.

On to `O=C(O)c1ccc(N2[C@@H]3CC[C@H]2C[C@H](OCc2c(-c4ccccc4OC(F)(F)F)noc2C2CC2)C3)nc1` [Example 18-3B, 6-[(1R,5S)-3-({5-cyclopropyl-3-[2-(trifluoromethoxy)phenyl]-1,2-oxazol-4-yl}methoxy)-8-azabicyclo[3.2.1]octan-8-yl]pyridine-3-carboxylic acid], for which the EC50 is 4 nM. Same read-out and setting: under `COC(=O)c1cnc(N2C3CC[C@H]2C[C@H](OCc2c(-c4ccccc4OC(F)(F)F)noc2C2CC2)C3)nc1` [Example 18-4A] stands 20 nM. In the case of `O=C(O)c1cnc(N2C3CC[C@H]2C[C@H](OCc2c(-c4ccccc4OC(F)(F)F)noc2C2CC2)C3)nc1` [Example 18-4B], the EC50 was found to be 10 nM. Turning to `COC(=O)c1cnc(N2C3CC[C@H]2C[C@H](OCc2c(-c4ccccc4OC(F)(F)F)noc2C2CC2)C3)cn1` [Example 18-5A], the EC50 is 20 nM. Turning to `O=C(O)c1cnc(N2C3CC[C@H]2C[C@H](OCc2c(-c4ccccc4OC(F)(F)F)noc2C2CC2)C3)cn1` [Example 18-5B], the concentration for a half-maximal effect (EC50) stood at 3 nM.

For the compound `COC(=O)c1ccc(N2C3CC[C@H]2C[C@H](OCc2c(-c4ccccc4C(F)(F)F)noc2C2CC2)C3)nc1` [Example 18-6A], the concentration giving a half-maximal response (EC50) came to 50 nM. Consider `O=C(O)c1ccc(N2[C@@H]3CC[C@H]2C[C@H](OCc2c(-c4ccccc4C(F)(F)F)noc2C2CC2)C3)nc1` [Example 18-6B, 6-[(1R,5S)-3-({5-cyclopropyl-3-[2-(trifluoromethyl)phenyl]-1,2-oxazol-4-yl}methoxy)-8-azabicyclo[3.2.1]octan-8-yl]pyridine-3-carboxylic acid], for which the EC50 amounted to 5 nM. Same read-out and setting: under `COC(=O)c1cc(C)nc(N2C3CC[C@H]2C[C@H](OCc2c(-c4ccccc4OC(F)(F)F)noc2C2CC2)C3)n1` [Example 18-7A] stands 18 nM; under `Cc1cc(C(=O)O)nc(N2C3CC[C@H]2C[C@H](OCc2c(-c4ccccc4OC(F)(F)F)noc2C2CC2)C3)n1` [Example 18-7B], 2 nM; under `COC(=O)Cc1ccc(N2C3CC[C@H]2C[C@H](OCc2c(-c4ccccc4OC(F)(F)F)noc2C2CC2)C3)nc1` [Example 19-1A], 180 nM. For `O=C(O)Cc1ccc(N2C3CC[C@H]2C[C@H](OCc2c(-c4ccccc4OC(F)(F)F)noc2C2CC2)C3)nc1` [Example 19-1B], the EC50 was determined as 40 nM.

On to `COC(=O)c1cnc(N2C3CC[C@H]2C[C@H](OCc2c(-c4ccccc4OC(F)(F)F)noc2C2CC2)C3)nc1C(F)(F)F` [Example 19-2A], for which the EC50 was 80 nM. Same read-out and setting: under `O=C(O)c1cnc(N2C3CC[C@H]2C[C@H](OCc2c(-c4ccccc4OC(F)(F)F)noc2C2CC2)C3)nc1C(F)(F)F` [Example 19-2B] stands 20 nM. On to `COC(=O)c1cnc(N2C3CC[C@H]2C[C@H](OCc2c(-c4ccccc4OC(F)(F)F)noc2C2CC2)C3)cc1C(F)(F)F` [Example 19-3A], for which the EC50 came out at 90 nM. In the case of `O=C(O)c1cnc(N2C3CC[C@H]2C[C@H](OCc2c(-c4ccccc4OC(F)(F)F)noc2C2CC2)C3)cc1C(F)(F)F` [Example 19-3B], the EC50 came to 10 nM. Turning to `COC(=O)c1cnc(N2C3CC[C@H]2C[C@H](OCc2c(-c4ccccc4OC(F)(F)F)noc2C2CC2)C3)c(C)c1` [Example 19-4A], the EC50 came out at 70 nM.

On to `COC(=O)c1cncc(N2C3CC[C@H]2C[C@H](OCc2c(-c4ccccc4OC(F)(F)F)noc2C2CC2)C3)n1` [Example 19-5A], for which the EC50 was 200 nM. Still for that read-out and setting: under `O=C(O)c1cncc(N2C3CC[C@H]2C[C@H](OCc2c(-c4ccccc4OC(F)(F)F)noc2C2CC2)C3)n1` [Example 19-5B] stands 9 nM; under `COC(=O)c1ccnc(N2C3CC[C@H]2C[C@H](OCc2c(-c4ccccc4OC(F)(F)F)noc2C2CC2)C3)n1` [Example 19-6A], 50 nM; under `O=C(O)c1ccnc(N2C3CC[C@H]2C[C@H](OCc2c(-c4ccccc4OC(F)(F)F)noc2C2CC2)C3)n1` [Example 19-6B], 7 nM. Turning to `COC(=O)c1cccc(N2C3CC[C@H]2C[C@H](OCc2c(-c4ccccc4OC(F)(F)F)noc2C2CC2)C3)n1` [Example 19-7A], the EC50 turned out to be 10 nM.

For `O=C(O)c1cccc(N2C3CC[C@H]2C[C@H](OCc2c(-c4ccccc4OC(F)(F)F)noc2C2CC2)C3)n1` [Example 19-7B], the EC50 stood at 3 nM. `COC(=O)c1ccnc(N2C3CC[C@H]2CC(OCc2c(-c4ccccc4C(F)(F)F)noc2C2CC2)C3)c1` (some centres unmarked) [Example 20A]: the EC50 worked out at 170 nM.

`O=C(O)c1ccnc(N2C3CC[C@H]2CC(OCc2c(-c4ccccc4C(F)(F)F)noc2C2CC2)C3)c1` (some centres unmarked) [Example 20B, 2-(3-((5-cyclopropyl-3-(2-(trifluoromethyl)phenyl)isoxazol-4-yl)methox)-8-azabicyclo[3.2.1]octan-8-yl)isonicotinic acid]: the concentration for a half-maximal effect (EC50) amounted to 330 nM. Take `COC(=O)c1cc(C)nc(N2C3CC[C@H]2CC(OCc2c(-c4ccccc4C(F)(F)F)noc2C2CC2)C3)c1` (some centres unmarked) [Example 21-1A]: the EC50 was 300 nM.

As for `Cc1cc(C(=O)O)cc(N2C3CC[C@H]2CC(OCc2c(-c4ccccc4C(F)(F)F)noc2C2CC2)C3)n1` (some centres unmarked) [Example 21-1B], the EC50 came out at 260 nM. For `COC(=O)c1cnc(N2C3CC[C@H]2CC(OCc2c(-c4ccccc4C(F)(F)F)noc2C2CC2)C3)nc1` (some centres unmarked) [Example 21-2A], the EC50 worked out at 120 nM.

In the case of `O=C(O)c1cnc(N2C3CC[C@H]2CC(OCc2c(-c4ccccc4C(F)(F)F)noc2C2CC2)C3)nc1` (some centres unmarked) [Example 21-2B], the EC50 was found to be 10 nM. With `COC(=O)c1cnc(N2C3CC[C@H]2CC(OCc2c(-c4ccccc4C(F)(F)F)noc2C2CC2)C3)cn1` (some centres unmarked) [Example 21-3A], the EC50 came to 180 nM. Regarding `O=C(O)c1cnc(N2C3CC[C@H]2CC(OCc2c(-c4ccccc4C(F)(F)F)noc2C2CC2)C3)cn1` (some centres unmarked) [Example 21-3B], the EC50 is 9 nM. As to `COC(=O)c1cnc(N2C3CC[C@H]2CC(OCc2c(-c4ccccc4C(F)(F)F)noc2C2CC2)C3)cc1C(F)(F)F` (some centres unmarked) [Example 21-4A], the EC50 is 250 nM. Turning to `O=C(O)c1cnc(N2C3CC[C@H]2CC(OCc2c(-c4ccccc4C(F)(F)F)noc2C2CC2)C3)cc1C(F)(F)F` (some centres unmarked) [Example 21-4B], the 50% effective concentration (EC50) came out at 20 nM. Regarding `COC(=O)c1ccnc(N2C3CC[C@H]2CC(OCc2c(-c4ccccc4C(F)(F)F)noc2C2CC2)C3)n1` (some centres unmarked) [Example 21-5A], the EC50 was 110 nM. On the same count and under the same terms, under `O=C(O)c1ccnc(N2C3CC[C@H]2CC(OCc2c(-c4ccccc4C(F)(F)F)noc2C2CC2)C3)n1` (some centres unmarked) [Example 21-5B] stands 10 nM; under `COC(=O)c1cccc(N2C3CC[C@H]2CC(OCc2c(-c4ccccc4C(F)(F)F)noc2C2CC2)C3)n1` (some centres unmarked) [Example 21-6A], 60 nM; under `O=C(O)c1cccc(N2C3CC[C@H]2CC(OCc2c(-c4ccccc4C(F)(F)F)noc2C2CC2)C3)n1` (some centres unmarked) [Example 21-6B], 16 nM. With `COC(=O)c1cnc(N2C3CC[C@H]2CC(OCc2c(-c4ccccc4OC(F)F)noc2C2CC2)C3)cc1C(F)(F)F` (some centres unmarked) [Example 22-1A], the EC50 is 530 nM. As for `O=C(O)c1cnc(N2C3CC[C@H]2CC(OCc2c(-c4ccccc4OC(F)F)noc2C2CC2)C3)cc1C(F)(F)F` (some centres unmarked) [Example 22-1B], the EC50 was found to be 20 nM.
